Laboratory results published in US20230302150A1, “ANTIBODY-TLR AGONIST CONJUGATES, METHODS AND USES THEREOF” (Ambrx, Inc., priority 2020, published 2023).
Read-outs that look alike come from different tables or passages of the source. Values belong to the compound of their own block, whether it stands above or below them.

Molecular target: T1, hTLR7 (Homo sapiens, UniProt Q9NYK1)
T1 construct: expressed in transfected cells; host or cells: HEK-Blue hTLR7 reporter cell line
T1 sequence (Q9NYK1 27-1049): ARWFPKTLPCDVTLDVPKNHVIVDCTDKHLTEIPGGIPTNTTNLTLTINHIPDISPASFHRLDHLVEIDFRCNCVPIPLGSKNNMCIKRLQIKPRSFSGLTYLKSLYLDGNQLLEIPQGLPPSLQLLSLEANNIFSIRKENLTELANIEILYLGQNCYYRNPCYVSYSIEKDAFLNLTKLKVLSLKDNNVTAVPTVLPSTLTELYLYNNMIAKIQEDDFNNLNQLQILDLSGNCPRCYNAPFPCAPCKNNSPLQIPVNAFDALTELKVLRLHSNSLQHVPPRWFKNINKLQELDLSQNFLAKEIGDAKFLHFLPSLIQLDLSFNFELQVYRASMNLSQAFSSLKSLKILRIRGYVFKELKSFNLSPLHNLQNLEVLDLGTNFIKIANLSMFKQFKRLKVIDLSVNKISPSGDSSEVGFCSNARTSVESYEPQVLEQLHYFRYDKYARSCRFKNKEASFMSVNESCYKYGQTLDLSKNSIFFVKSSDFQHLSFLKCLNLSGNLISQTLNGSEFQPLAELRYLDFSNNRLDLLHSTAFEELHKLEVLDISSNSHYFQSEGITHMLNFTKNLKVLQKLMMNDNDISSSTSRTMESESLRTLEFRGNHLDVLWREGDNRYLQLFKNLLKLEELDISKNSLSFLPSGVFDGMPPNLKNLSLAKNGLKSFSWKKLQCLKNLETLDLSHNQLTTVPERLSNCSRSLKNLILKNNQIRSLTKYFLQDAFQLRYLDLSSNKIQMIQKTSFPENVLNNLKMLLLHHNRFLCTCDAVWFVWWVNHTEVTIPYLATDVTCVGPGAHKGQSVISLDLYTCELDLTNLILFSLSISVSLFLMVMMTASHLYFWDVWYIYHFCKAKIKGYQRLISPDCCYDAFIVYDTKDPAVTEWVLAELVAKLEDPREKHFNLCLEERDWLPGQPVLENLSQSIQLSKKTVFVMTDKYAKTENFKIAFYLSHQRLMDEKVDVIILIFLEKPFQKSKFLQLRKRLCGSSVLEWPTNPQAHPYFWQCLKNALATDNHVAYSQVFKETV
Assay: HEK-Blue hTLR7 reporter assay (NF-kB-induced SEAP, Quanti-Blue)
Assay type: cell-based
Experimental: HEK-Blue™ hTLR7 cells were incubated in HEK-Blue™ Detection medium and stimulated with increasing concentrations of TLR7 or TLR8 or TLR7/8 agonists. […] The EC50 was determined from dose-response curve using Prism Software.

[1] = Table 11, TLR7 activities, read-out: EC50
[2] = Table 18, TLR7, PEG shielding, read-out: EC50

SMILES: CCCCOc1nc(N)c2[nH]c(=O)n(Cc3ccc(CN4CCC(CCNC(=O)CCC(N)CCC(=O)NCCC5CCN(Cc6ccc(Cn7c(=O)[nH]c8c(N)nc(OCCCC)nc87)cc6)CC5)CC4)cc3)c2n1 [AXC-888, 4-amino-N1,N7-bis(2-(1-(4-((6-amino-2-butoxy-8-oxo-7H-purin-9(8H)-yl)methyl)benzyl)piperidin-4-yl)ethyl)heptanediamide]
EC50 [1]: 468 nM

SMILES: CCCCOc1nc(N)c2[nH]c(=O)n(Cc3ccc(CN4CCC(CCNC(=O)CCC(CCC(=O)NCCC5CCN(Cc6ccc(Cn7c(=O)[nH]c8c(N)nc(OCCCC)nc87)cc6)CC5)NC(=O)CON)CC4)cc3)c2n1 [AXC-889, N1,N7-bis(2-(1-(4-((6-amino-2-butoxy-8-oxo-7H-purin-9(8H)-yl)methyl)benzyl)piperidin-4-yl)ethyl)-4-(2-(aminooxy)acetamido)heptanediamide]
EC50 (Table 12, TLR7 agonists attached to a linker, read-out: TLR Agonist Payload + Linkers EC50): 697 nM

SMILES: CCCCOc1nc(N)c2[nH]c(=O)n(Cc3ccc(CN4CCC(CCNC(=O)C(C)C)CC4)cc3)c2n1 [AXC-890, N-(2-(1-(4-((6-amino-2-butoxy-8-oxo-7H-purin-9(8H)-yl)methyl)benzyl)piperidin-4-yl)ethyl)isobutyramide]
EC50 [1]: 15.3 nM

SMILES: CCCCOc1nc(N)c2[nH]c(=O)n(Cc3ccc(CN4CCC(CCNC(=O)[C@H](C)N)CC4)cc3)c2n1 [AXC-891, (S)-2-amino-N-(2-(1-(4-((6-amino-2-butoxy-8-oxo-7H-purin-9(8H)-yl)methyl)benzyl)piperidin-4-yl)ethyl)propanamide]
EC50 (Table 13, TLR7, read-out: EC50): 47 nM

SMILES: CCCCOc1nc(N)c2[nH]c(=O)n(Cc3ccc(CN4CCC(CCNC(=O)[C@@H](N)CCCNC(=N)N)CC4)cc3)c2n1 [AXC-892, (S)-2-amino-N-(2-(1-(4-((6-amino-2-butoxy-8-oxo-7H-purin-9(8H)-yl)methyl)benzyl)piperidin-4-yl)ethyl)-5-guanidinopentanamide]
EC50 (Table 13, TLR7, read-out: EC50): 73 nM

SMILES: CCCCOc1nc(N)c2[nH]c(=O)n(Cc3ccc(CN4CCC(CCN(CC(C)C)C(=O)CCOCCON)CC4)cc3)c2n1 [AXC-893, N-(2-(1-(4-((6-amino-2-butoxy-8-oxo-7H-purin-9(8H)-yl)methyl)benzyl)piperidin-4-yl)ethyl)-3-(2-(aminooxy)ethoxy)-N-isobutylpropanamide]
EC50 (Table 13, TLR7, read-out: EC50): 3120 nM

SMILES: CCCCOc1nc(N)c2[nH]c(=O)n(Cc3ccc(CN4CCCCC4)cc3)c2n1 [AXC-894, 6-amino-2-butoxy-9-(4-(piperidin-1-ylmethyl)benzyl)-7H-purin-8(9H)-one]
EC50 (Table 13, TLR7, read-out: EC50): 1670 nM
EC50 (Table 14, read-out: TLR7 EC50): 2.1 nM
EC50 (text to Table 14, TLR7, read-out: EC50): < 10 nM

SMILES: CCCCOc1nc(N)c2[nH]c(=O)n(Cc3ccc(CN4CCC(CCNC(=O)c5ccc(N)c(OC)c5)CC4)cc3)c2n1 [AXC-895, 4-amino-N-(2-(1-(4-((6-amino-2-butoxy-8-oxo-7H-purin-9(8H)-yl)methyl)benzyl)piperidin-4-yl)ethyl)-3-methoxybenzamide]
TLR7 activity (comparison in words): highest potency among different payloads tested
EC50 (Table 13, TLR7, read-out: EC50): 11 nM

SMILES: CCCCOc1nc(N)c2[nH]c(=O)n(Cc3ccc(CN4CCC(CCNC(=O)[C@H](C)NC(=O)CON)CC4)cc3)c2n1 [AXC-896, (S)—N-(2-(1-(4-((6-amino-2-butoxy-8-oxo-7H-purin-9(8H)-yl)methyl)benzyl)piperidin-4-yl)ethyl)-2-(2-(aminooxy)acetamido)propanamide]
EC50 (Table 13, TLR7, read-out: EC50): 325 nM

SMILES: CCCCOc1nc(N)c2[nH]c(=O)n(Cc3ccc(CN4CCC(CCNC(=O)[C@H](CCCNC(=N)N)NC(=O)CON)CC4)cc3)c2n1 [AXC-897, (S)—N-(2-(1-(4-((6-amino-2-butoxy-8-oxo-7H-purin-9(8H)-yl)methyl)benzyl)piperidin-4-yl)ethyl)-2-(2-(aminooxy)acetamido)-5-guanidinopentanamide]
EC50 (Table 13, TLR7, read-out: EC50): 330 nM

SMILES: CCCCOc1nc(N)c2[nH]c(=O)n(Cc3ccc(CN4CCC(C5CCNCC5)CC4)cc3)c2n1 [AXC-898, 9-(4-(4,4′-bipiperidin-1-ylmethyl)benzyl)-6-amino-2-butoxy-7H-purin-8(9H)-oneone]
EC50 (Table 13, TLR7, read-out: EC50): 50 nM

SMILES: CCCCOc1cc2c([nH]c(=O)n2Cc2ccc(CN3CCC(CCNC(=O)c4ccc(N)cc4)CC3)cc2)c(N)n1 [AXC-905, 4-amino-N-(2-(1-(4-((4-amino-6-butoxy-2-oxo-2,3-dihydro-1H-imidazo[4,5-c]pyridin-1-yl)methyl)benzyl)piperidin-4-yl)ethyl)benzamidebenzamide]
EC50 (Table 14, read-out: TLR7 EC50): 2.6 nM

SMILES: CCCCOc1nc(N)c2[nH]c(=O)n(Cc3ccc(CN4CCC(c5ccc(N)cc5)CC4)cc3)c2n1 [AXC-908, 6-amino-9-(4-((4-(4-aminophenyl)piperidin-1-yl)methyl)benzyl)-2-butoxy-7H-purin-8(9H)-one]
EC50 (Table 14, read-out: TLR7 EC50): 11.5 nM

SMILES: CCCCOc1nc(N)c2[nH]c(=O)n(Cc3ccc(CN4CCC(C5CCN(C(=O)CCOCCON)CC5)CC4)cc3)c2n1 [AXC-909, 6-amino-9-(4-((1′-(3-(2-(aminooxy)ethoxy)propanoyl)-4,4′-bipiperidin-1-yl)methyl)benzyl)-2-butoxy-7H-purin-8(9H)-one]
EC50 (Table 14, read-out: TLR7 EC50): 71.9 nM

EC50 (Table 14, read-out: TLR7 EC50): 2590 nM
SMILES: CCCCc1nc2c(N)nc3ccccc3c2n1CCCCNC(=O)CON [AXC-910, reference compound]

SMILES: CCCCOc1nc(N)c2[nH]c(=O)n(Cc3ccc(CN4CCC(CCNC(=O)[C@@H](N)CCCCNC(=O)CON)CC4)cc3)c2n1 [AXC-913, (S)-2-amino-N-(2-(1-(4-((6-amino-2-butoxy-8-oxo-7,8-dihydro-9H-purin-9-yl)methyl)benzyl)piperidin-4-yl)ethyl)-6-(2-(aminooxy)acetamido)hexanamide]
EC50 [2]: 29.6 nM

SMILES: CCCCOc1nc(N)c2[nH]c(=O)n(Cc3ccc(CN4CCC(CCNC(=O)[C@H](CCCCNC(=O)CON)NC(=O)[C@H](C)NC(=O)[C@@H](N)C(C)C)CC4)cc3)c2n1 [AXC-923, (S)—N-(2-(1-(4-((6-amino-2-butoxy-8-oxo-7,8-dihydro-9H-purin-9-yl)methyl)benzyl)piperidin-4-yl)ethyl)-2-((S)-2-((S)-2-amino-3-methylbutanamido)propanamido)-6-(2-(aminooxy)acetamido)hexanamide]
EC50 [2]: 434 nM

SMILES: CCCCOc1nc(N)c2[nH]c(=O)n(Cc3ccc(CN4CCC(CCNC(=O)[C@H](CCCCNC(=O)CON)NC(=O)CCOCCOCCOCCOCCOCCOCCOCCOCCOCCOCCOCCOCCOCCOCCOCCOCCOCCOCCOCCOCCOCCOCCOCCOC)CC4)cc3)c2n1 [AXC-924, (S)—N-(2-(1-(4-((6-amino-2-butoxy-8-oxo-7,8-dihydro-9H-purin-9-yl)methyl)benzyl)piperidin-4-yl)ethyl)-6-(2-(aminooxy)acetamido)-2-PEG24-amidohexanamide]
EC50 [2]: 398 nM

SMILES: CCCCOc1nc(N)c2[nH]c(=O)n(Cc3ccc(CN4CCC(CCNC(=O)[C@H](CCCCNC(=O)CON)NC(=O)OCc5ccc(NC(=O)[C@H](C)NC(=O)[C@@H](NC(=O)CCOCCOCCOCCOCCOCCOCCOCCOCCOCCOCCOCCOCCOCCOCCOCCOCCOCCOCCOCCOCCOCCOCCOCCOC)C(C)C)cc5)CC4)cc3)c2n1 [AXC-925, 4-((S)-2-((S)-3-methyl-2-PEG24-amidobutanamido)propanamido)benzyl ((S)-1-((2-(1-(4-((6-amino-2-butoxy-8-oxo-7,8-dihydro-9H-purin-9-yl)methyl)benzyl)piperidin-4-yl)ethyl)amino)-6-(2-(aminooxy)acetamido)-1-oxohexan-2-yl)carbamate]
EC50 [2]: 1590 nM

SMILES: CCCCOc1nc(N)c2[nH]c(=O)n(Cc3ccc(CN4CCC(CCNC(=O)[C@H](CCCCNC(=O)CON)NC(=O)OCc5ccc(NC(=O)[C@H](C)NC(=O)[C@@H](NC(C)=O)C(C)C)cc5)CC4)cc3)c2n1 [AXC-926, 4-((S)-2-((S)-2-acetamido-3-methylbutanamido)propanamido)benzyl ((S)-1-((2-(1-(4-((6-amino-2-butoxy-8-oxo-7,8-dihydro-9H-purin-9-yl)methyl)benzyl)piperidin-4-yl)ethyl)amino)-6-(2-(aminooxy)acetamido)-1-oxohexan-2-yl)carbamate]
EC50 [2]: 824 nM

SMILES: CCCCOc1nc(N)c2[nH]c(=O)n(Cc3ccc(CN4CCC(CCNC(=O)[C@@H](N)Cc5ccc(Cn6cc(CON)nn6)cc5)CC4)cc3)c2n1 [AXC-931, (S)-2-amino-N-(2-(1-(4-((6-amino-2-butoxy-8-oxo-7,8-dihydro-9H-purin-9-yl)methyl)benzyl)piperidin-4-yl)ethyl)-3-(4-((4-((aminooxy)methyl)-1H-1,2,3-triazol-1-yl)methyl)phenyl)propanamide]
EC50 (Table 19, TLR7, drug-linkers with PEG shielding, read-out: EC50): 490 nM
